What all share (format): functional, organism-based
The species entered for assay [1] is Rattus norvegicus. Briefly: Antinociceptive activity against carrageenan-induced hyperalgesia in Wistar rat assessed as increase in pain threshold at 105 nm/paw, i.pl in presence of 1 ug/paw of opioid antagonist naloxone treated 30 mins before compound challenge.
The test system of assay [2] is Rattus norvegicus. Briefly: Antiinflammatory activity against carrageenan-induced edema in Wistar rat assessed as paw thickness at 105 nm/paw i.pl administered before 30 mins of carrageenan challenge. On the technique in general: Carrageenan injected into the paw causes an acute inflammation.
The test system of assay [3] is Rattus norvegicus. Briefly: Antinociceptive activity against carrageenan-induced hyperalgesia in Wistar rat assessed as increase in pain threshold at 105 nm/paw, i.pl administered after 150 mins of carrageenan challenge by paw pressure test.
Assay [4] has as its system Rattus norvegicus. Briefly: Antinociceptive activity in i.pl dosed Wistar rat assessed as increase in pain threshold by paw pressure test.
For assay [5], the system named is Rattus norvegicus. Briefly: Antinociceptive activity against carrageenan-induced hyperalgesia in Wistar rat assessed as increase in pain threshold at 105 nm/paw, i.pl in presence of 5 mg/kg of nonselective serotonin antagonist methysergide treated 30 mins before compound challenge. Details: dose 5 mg/kg.

Activity calls are given as the source filed them.

Turning to `O=C(Cc1c[nH]c2cc(Br)ccc12)N[C@@H](Cc1c[nH]cn1)C(=O)O`, the result in the assay filed under Rattus norvegicus [1] was Active. In the assay with Rattus norvegicus [2], the inhibition result was “inactive”. For the same molecule, in the assay with Rattus norvegicus [3], the inhibition entry is “Active”. In addition, in the assay on Rattus norvegicus [4], the Activity result is “Dose-dependent effect”. Further, in the assay with Rattus norvegicus [5], the outcome was inactive.

The record behind these values is ChEMBL document CHEMBL1765059, “Bunodosine 391: an analgesic acylamino acid from the venom of the sea anemone Bunodosoma cangicum” (J Nat Prod, 2011).
